Each structure is given as a SMILES string. Several values for one entry are separate records, joined by “and”; a condition that tells them apart may be missing. Identical values can stand only once.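 In this assay, cells in 96-well plates receive the compound at five concentrations for 48 hours. Endpoints are linearly interpolated between the surrounding concentrations. Abbreviation: GI50, concentration required for 50% inhibition of growth.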 Activity calls are given as the source filed them. Cut-off read from the data, not from the text of the source: active = GI50 up to about 1.1 µM and inactive = higher.

Here are results for 13 compounds from ChEMBL document CHEMBL1201862, “PubChem BioAssay data set” (2004).

Among the test systems are A498; ACHN; COLO 205; DLD-1; HCT-116; HOP-92; IGROV-1; KM-20L2; KM12; LOX IMVI; NCI-H226; OVCAR-5; SN12C; SNB-75; SW-620; UACC-257.
Common to all, as to assay: growth of human tumour cells (NCI), 48 h

Take `CC(C)(Oc1ccc(/C=C/C(=O)c2ccccc2)cc1)C(=O)Nc1c(Cl)cccc1Cl`: the GI50 in the experiment with A498 was 0.524 µM (active); in the experiment with ACHN, > 10 µM (inactive); in the experiment on COLO 205, > 10 µM (inactive); in the experiment with DLD-1 it was > 10 µM (inactive); in the experiment with HCT-116, > 10 µM (inactive); in the experiment with HOP-92, > 10 µM (inactive). Moreover, the GI50 with IGROV-1 was > 10 µM (inactive); in the experiment on KM-20L2, > 10 µM (inactive); with KM12, 4.07 µM (inactive); in the experiment with LOX IMVI, > 10 µM (inactive); with NCI-H226, > 10 µM (inactive); in the experiment with OVCAR-5, > 10 µM (inactive). For the same compound, the GI50 is > 10 µM (inactive) in the experiment on SN12C, > 10 µM (inactive) in the experiment with SNB-75, 7.08 µM (inactive) in the experiment on SW-620 and > 10 µM (inactive) with UACC-257.
Consider `Cc1nc(Nc2ccc(Cl)cc2)sc1C(=O)NNC(=O)C(=O)NN`, for which the GI50 with A498 was 15.7 µM (inactive); with ACHN, 26.4 µM (inactive); with COLO 205, 20.3 µM (inactive); in the experiment on DLD-1, 18.5 µM (inactive); with HCT-116, 19.6 µM (inactive); with HOP-92, 19.9 µM (inactive). The GI50 in the experiment on IGROV-1 is 19.1 µM (inactive); with KM-20L2, 16.3 µM (inactive); in the experiment on KM12 it was 18.3 µM (inactive); with LOX IMVI, 17.6 µM (inactive); in the experiment on NCI-H226, 20.3 µM (inactive); in the experiment with OVCAR-5, 17 µM (inactive). For the same compound, the GI50 in the experiment on SN12C was 16.1 µM (inactive); with SNB-75, 23.7 µM (inactive); in the experiment with SW-620, 18 µM (inactive); with UACC-257, 25.1 µM (inactive).
On to `COc1cc(/C=C/C(=O)c2cccc3ccccc23)cc(OC)c1OC`, for which the GI50 in the experiment with A498 is 2.82 µM (inactive); with ACHN it was 12 µM (inactive); in the experiment on DLD-1, 3.85 µM (inactive); in the experiment with HCT-116, 3.82 µM (inactive); with IGROV-1 it was 15.4 µM (inactive); in the experiment with KM-20L2, 3.94 µM (inactive). The GI50 was 4.06 µM (inactive) in the experiment with KM12; 3.03 µM (inactive) in the experiment on LOX IMVI; 15.3 µM (inactive) in the experiment with NCI-H226; 14.2 µM (inactive) with OVCAR-5; 3.39 µM (inactive) in the experiment with SN12C; 10.3 µM (inactive) in the experiment with SNB-75. Moreover, the GI50 was 2.75 µM (inactive) in the experiment on SW-620 and 6.37 µM (inactive) with UACC-257.
For `CSC1=Nc2ccccc2N=C(c2ccccc2)C1`, the GI50 is > 100 µM (inactive) with A498; > 100 µM (inactive) with ACHN; 21.2 µM (inactive) with COLO 205; 29.4 µM (inactive) with DLD-1; 24.6 µM (inactive) in the experiment on HCT-116; 20.2 µM (inactive) in the experiment with HOP-92. The GI50 with IGROV-1 was > 100 µM (inactive); in the experiment with KM-20L2, 35.4 µM (inactive); in the experiment on KM12 it was 36 µM (inactive); with LOX IMVI, 17.2 µM (inactive); in the experiment with NCI-H226, > 100 µM (inactive); in the experiment with OVCAR-5 it was 67.1 µM (inactive). For the same compound, the GI50 in the experiment on SN12C was > 100 µM (inactive); in the experiment on SNB-75, 66.5 µM (inactive); in the experiment with SW-620 it was 15.1 µM (inactive); in the experiment on UACC-257 it was 33.1 µM (inactive).
On to `COc1ccc(OC(C)C(=O)O)c2c1CCCC2=O` (configuration not stated), for which the GI50 with A498, in the experiment on ACHN, in the experiment on COLO 205, in the experiment on DLD-1, with HCT-116 and with IGROV-1 was > 100 µM (inactive) throughout. Moreover, the GI50 in the experiment with KM-20L2 was < 0.01 µM (active); in the experiment on KM12 it was > 100 µM (inactive); in the experiment with LOX IMVI it was > 100 µM (inactive); in the experiment with NCI-H226, > 100 µM (inactive); in the experiment on OVCAR-5, > 100 µM (inactive); with SN12C, > 100 µM (inactive). Besides, the GI50 in the experiment on SNB-75, in the experiment on SW-620 and with UACC-257 was > 100 µM (inactive) throughout.
On to `COc1ccc(C(=O)CC(=O)C(=O)Nc2ccc(C)c(C)c2)cc1`, for which the GI50 in the experiment with A498 was > 100 µM (inactive); in the experiment with ACHN, > 100 µM (inactive); with COLO 205 it was > 51.9 µM (inactive); with DLD-1, 61.8 µM (inactive); in the experiment with HCT-116 it was 43.8 µM (inactive); with HOP-92 it was > 51.3 µM (inactive). Also, the GI50 in the experiment with IGROV-1 was > 93.3 µM (inactive); with KM-20L2, > 77.1 µM (inactive); in the experiment with KM12, > 100 µM (inactive); in the experiment on LOX IMVI, 23.7 µM (inactive); with NCI-H226 it was > 100 µM (inactive); in the experiment with SN12C it was > 91.6 µM (inactive). The GI50 with SNB-75 is 11.3 µM (inactive); with SW-620, 28.4 µM (inactive); in the experiment on UACC-257, > 100 µM (inactive).
With `CC(=O)NC1C(OCc2ccccc2)OC(COC(=O)CCCCCNc2ccc([N+](=O)[O-])c3[nH]c4ccc(O)cc4c(=O)c23)C(O)C1OC(C)C(=O)N[C@@H](C)C(=O)N[C@H](CCC(=O)OCc1ccccc1)C(N)=O` (some centres not stated), the GI50 in the experiment on A498 is 2.1 µM (inactive); with ACHN, 17.3 µM (inactive); in the experiment with COLO 205, 1.55 µM (inactive); in the experiment with DLD-1, 1.8 µM (inactive); with HCT-116 it was 0.321 µM (active); in the experiment on HOP-92 it was 0.879 µM (active). Further, the GI50 with IGROV-1 was 7.24 µM (inactive); in the experiment on KM-20L2, 0.234 µM (active); in the experiment with KM12, 1.39 µM (inactive); in the experiment on LOX IMVI it was 2.39 µM (inactive); with NCI-H226, 4.9 µM (inactive); in the experiment with OVCAR-5 it was 1.06 µM (active). Besides, the GI50 in the experiment with SN12C was 6.59 µM (inactive); in the experiment on SNB-75, 4.13 µM (inactive); in the experiment with SW-620, 0.465 µM (active); in the experiment with UACC-257, 2.45 µM (inactive).
Take `O=[N+]([O-])c1ccc(-n2nnc(C3=NCCN3)c2-c2ccc(Cl)cc2)cc1`: the GI50 in the experiment with A498 was > 100 µM (inactive); with ACHN, > 100 µM (inactive); with COLO 205, 51.6 µM (inactive); in the experiment on DLD-1, > 100 µM (inactive); in the experiment on HCT-116 it was 55.8 µM (inactive); in the experiment on HOP-92 it was > 100 µM (inactive). Also, the GI50 in the experiment with IGROV-1, with KM-20L2, in the experiment with KM12, in the experiment on LOX IMVI, in the experiment with NCI-H226 and in the experiment with OVCAR-5 was > 100 µM (inactive) in each case. Besides, the GI50 with SN12C was > 100 µM (inactive); in the experiment with SNB-75, 83.6 µM (inactive); in the experiment with SW-620, > 100 µM (inactive); with UACC-257, > 100 µM (inactive).
On to `O/N=C1/C(=C/c2ccc(Cl)cc2)CCCC1C(NO)c1ccc(Cl)cc1` (configuration not stated), for which the GI50 with A498 is 18.1 µM (inactive); in the experiment with ACHN, 31.5 µM (inactive); in the experiment on COLO 205, 20.7 µM (inactive); with DLD-1, 26.5 µM (inactive); with HCT-116, 23.9 µM (inactive); in the experiment on IGROV-1 it was 38.2 µM (inactive). Besides, the GI50 was 17.6 µM (inactive) with KM-20L2; 19.9 µM (inactive) in the experiment on KM12; 19.3 µM (inactive) in the experiment with SN12C; 12.6 µM (inactive) with SNB-75; 30.2 µM (inactive) with SW-620; 17.2 µM (inactive) in the experiment with UACC-257.
For the compound `Nc1c(-c2ccc(Br)cc2)[n+]([O-])c2ccccc2[n+]1[O-]`, the GI50 in the experiment with A498, with ACHN, in the experiment with COLO 205, in the experiment with DLD-1, in the experiment with HCT-116 and in the experiment on HOP-92 was > 100 µM (inactive) each time. Moreover, the GI50 in the experiment on IGROV-1, with KM-20L2, in the experiment with KM12, in the experiment with NCI-H226, in the experiment on OVCAR-5 and in the experiment on SN12C was > 100 µM (inactive) in each case. The GI50 was 81.3 µM (inactive) with SNB-75, > 100 µM (inactive) with SW-620 and > 100 µM (inactive) in the experiment with UACC-257.
For the compound `C[Si](C)(C)C#C[I+]c1ccccc1`, the GI50 with A498 was > 100 µM (inactive); in the experiment with ACHN it was 41.8 µM (inactive); with COLO 205, 17.7 µM (inactive); in the experiment with DLD-1 it was 19.4 µM (inactive); with HCT-116, 27.5 µM (inactive); with HOP-92, 40.5 µM (inactive). Moreover, the GI50 with IGROV-1 is 92 µM (inactive); with KM-20L2, 37.5 µM (inactive); in the experiment on KM12, 87.3 µM (inactive); in the experiment with LOX IMVI it was 19.1 µM (inactive); in the experiment on NCI-H226, > 100 µM (inactive); with OVCAR-5, > 100 µM (inactive). For the same compound, the GI50 in the experiment with SN12C is 21.7 µM (inactive); in the experiment on SNB-75, 40.4 µM (inactive); in the experiment with UACC-257, > 100 µM (inactive).
Regarding `CC(C)=CCSC1CC2C(CC1(C)O)C2(C)C` (configuration not stated), the GI50 with A498 is 21.6 µM (inactive) and 17.3 µM (inactive); in the experiment with ACHN it was 17.2 µM (inactive) and 17.5 µM (inactive); in the experiment on COLO 205, 17.1 µM (inactive) and 18.5 µM (inactive); in the experiment with DLD-1, 17.3 µM (inactive) and 13.8 µM (inactive); in the experiment with HCT-116, 15.3 µM (inactive) and 17.1 µM (inactive); with HOP-92, 14.1 µM (inactive) and 16.6 µM (inactive). Moreover, the GI50 was 19 µM (inactive) and 16.9 µM (inactive) in the experiment on IGROV-1; 15.7 µM (inactive) and 19.1 µM (inactive) with KM-20L2; 19.3 µM (inactive) and 14.1 µM (inactive) in the experiment with KM12; 16.2 µM (inactive) and 15.1 µM (inactive) with LOX IMVI; 13.7 µM (inactive) and 14.4 µM (inactive) with NCI-H226; 14.9 µM (inactive) and 16.5 µM (inactive) in the experiment on OVCAR-5. Further, the GI50 with SN12C was 17 µM (inactive) and 15.6 µM (inactive); in the experiment on SNB-75 it was 15.8 µM (inactive) and 11.5 µM (inactive); with SW-620 it was 19.6 µM (inactive) and 17.1 µM (inactive).
`Nc1cc(C(=O)NC2C3CC4CC(C3)CC2C4)nc(S)n1` (configuration not stated): the GI50 in the experiment on A498, in the experiment on DLD-1, with HCT-116, with HOP-92, with IGROV-1 and in the experiment on KM-20L2 was > 100 µM (inactive) each time. The GI50 in the experiment on NCI-H226, in the experiment on SN12C, in the experiment with SNB-75, in the experiment with SW-620 and in the experiment with UACC-257 was > 100 µM (inactive) in each case.
